For assay [1], the system named is E. coli (MCR106). The experiment in a line: MIC, broth microdilution, E. coli (MCR106). In kind it is cell-based. As for the experimental part: (§1) The antimicrobial activity of a compound or formulation according to the invention is determined by exposing a culture comprising a bacterial species to different concentrations of the compound or formulation and monitoring the effects on growth relative to a control culture not exposed to the compound. Any method known in the art may be used to assess bacterial growth. Antimicrobial effects are expressed as Minimal Inhibitory Concentration (MIC) and Minimum Bactericidal Concentration (MBC).
(§2) The MIC is expressed as a range between the concentration at which no growth is observed and the concentration of the dilution which immediately follows.
(§3) Typically, MIC is measured using a broth microdilution assay as follows. Dilution of candidate antimicrobial compounds in culture medium is performed in a sterile, covered 96-well microtiter plate with flat bottom wells (Costar #9017). The final concentrations of the compounds are typically 100, 50, 25, 12.5, 6.25, 3.12, 1.56, 0.78, 0.39, 0.20, 0.10, and 0.05 μg/mL, respectively. Culture medium only (containing no bacteria) is also included as a negative control for each plate. Ampicillin and rifamnpin are used as positive controls against all bacterial strains in every experiment.
(§4) The overnight culture of a single colony is diluted in sterile medium so that, after inoculation, each well contains approximately 5×10^5CFU/mL. Within 15 minutes of preparation, […] of the adjusted inoculum suspension is added to the microliter plate. Each well is diluted with an equal volume of the antimicrobial compounds or control solution. The inoculated microtiter plate is typically incubated at 35° C. for 16-20 hours. The turbidity of each well is determined by measuring the absorbance at 595 nm using a BioRad Model 3550-UV microplate reader.
(§5) The antimicrobial activities of the compounds of the invention, expressed as MIC and MBC, were determined as described above, using as tester strains wild-type S. aureus, rifampicin-resistant S. aureus, wild-type E. coli, and E. coli cells that had been permeabilized.

The subject of assay [2] is E. coli (BAS). As to the kind of experiment: MIC, broth microdilution, E. coli (BAS). It is filed as cell-based. As for the experimental part:
as §1, §2, §3, §4, §5

Assay [3] concerns S. Aureus. The experiment in a line: MIC, broth microdilution, S. Aureus. In kind it is cell-based. The note with it: for MIC: S. Aureus. The method, then: as §1, §2, §3, §4, §5
In assay [4] the test system is S. Aureus (Rif-res). The experiment in a line: MIC, broth microdilution, S. Aureus (Rif-res). In kind it is cell-based. The method, then: as §1, §2, §3, §4, §5
Assay [5] concerns E. coli (MCR106). The experiment in a line: MBC, E. coli (MCR106). It is filed as cell-based. The conditions noted are these: minimum bactericidal concentration; for MBC: Escherichia coli, read-out: MBG. The method, then:
as §1
(§6) The minimum bactericidal concentration (MBC) is defined as the concentration of antimicrobial agent from which no colonies grow on petri plates or in the medium. In practice, the MBC is arbitrarily defmed as the concentration at which a 1000-fold reduction in colony forming units is observed with respect to the original inoculum (survival of 0.1%). Typically, the wells from a MIC microliter plate using a 96-well inoculation grid into a fresh microliter plate containing 100 μL Mueller-Hinton broth per well. The MBC plates are incubated at 37° C. for 16-20 hrs and the MBC values are determined.
as §5

The subject of assay [6] is E. coli (BAS). The experiment in a line: MBC, E. coli (BAS). It is filed as cell-based. The note with it: minimum bactericidal concentration; for MBC: Escherichia coli, read-out: MBG. As for the experimental part: as §1, §6, §5
Assay [7] relates to S. Aureus. The experiment in a line: MBC, S. Aureus. In kind it is cell-based. The conditions noted are these: for MBC: Staphylococcus aureus, read-out: MBG. The method, then: as §1, §6, §5
Assay [8] concerns S. Aureus (Rif-res). The experiment in a line: MBC, S. Aureus (Rif-res). The note with it: for MBC: Staphylococcus aureus, read-out: MBG. It is filed as cell-based. As for the experimental part: as §1, §6, §5
Assay [9] has as its system bacterial RNA polymerase. As to the kind of experiment: in vitro transcription, bacterial versus human RNA polymerase. In kind it is biochemical. The conditions noted are these: in words; RNA polymerase from S. aureus, E. coli or human, pTaq promoter template. The source says: The compounds useful for inclusion in the pharmaceutical formulations of the invention can be identified by their ability to bind to, and/or inhibit the activity of, one or more bacterial RNA polymerases. RNA polymerase as used herein refers to DNA-dependent RNA polymerase holoenzyme, which is a complex consisting of five protein subunits: two copies of the a subunit and one copy each of the β, β', and σ subunits. The α, β and β' subunits are invariant in a given bacterial species and together form core RNA polymerase.
RNA polymerase inhibition activity of a compound can be detected by including the compound in an in vitro transcription reaction and comparing the level of transcription that occurs in the presence and absence of the compound. […] After incubation for 60 minutes at 25° C., the reaction is terminated with 100 μl 10% TCA, which also precipitates the newly transcribed RNA, and incorporation of radioactivity into RNA is quantified. […]
It will be understood that useful antimicrobial compositions and formulations act selectively on microbial pathogens. […] That is, the inhibitory activity of a particular compound towards an animal RNA polymerase may be measured in parallel with a bacterial RNA polymerase. […]

Where [10] appears, read: Escherichia coli, read-out: MIC.
The mark [11] stands for this setting: Staphylococcus aureus, read-out: MIC.

In brackets after ≈: the same amount, converted by molar mass. Read-outs that look alike come from different tables or passages of the source. Some results are limits rather than exact numbers.

Turning to `OCCCN1CCN(c2ccc(Nc3ccnc4cc5ccccc5cc34)cc2)CC1` [3{4-[4-(benzo[g]quinolin-4-yl-amino)phenyl]-1-piperazinyl}-1-propanol], the MIC came to 16 µg/mL (≈ 38.8 µM) in [1] (Escherichia coli), 8 µg/mL (≈ 19.4 µM) in [2] (setting [10]), 32 µg/mL (≈ 77.6 µM) in assay [3] (setting [11]) and 8 µg/mL (≈ 19.4 µM) in assay [4] (Staphylococcus aureus). Besides, the MBC in assay [5] turned out to be 64 µg/mL (≈ 155 µM); in assay [6], 8 µg/mL (≈ 19.4 µM); in [7], 32 µg/mL (≈ 77.6 µM); in [8], 8 µg/mL (≈ 19.4 µM).

Turning to `CCCCC(C)Nc1ccnc2cc3ccccc3cc12` (centres unmarked) [N-(1-methylpentyl)benzo[g]quinolin-4-amine], the minimum inhibitory concentration (MIC) is above 64 µg/mL in [1] (Escherichia coli), 8 µg/mL (≈ 28.7 µM) in assay [2] (setting [10]), 16 µg/mL (≈ 57.5 µM) in assay [3] (setting [11]) and 8 µg/mL (≈ 28.7 µM) in [4] (Staphylococcus aureus). The MBC was above 64 µg/mL in assay [5], 16 µg/mL (≈ 57.5 µM) in assay [6], 16 µg/mL (≈ 57.5 µM) in assay [7] and 16 µg/mL (≈ 57.5 µM) in assay [8].

For `c1ccc2cc3c(Nc4ccc(N5CCCCCC5)cc4)ccnc3cc2c1` [N-[4-(1-azepanyl)phenyl]benzo[g]quinolin-4-amine], the MIC is above 64 µg/mL in assay [1] (Escherichia coli), above 64 µg/mL in assay [2] (setting [10]), 2 µg/mL (≈ 5.44 µM) in [3] (setting [11]) and 1 µg/mL (≈ 2.72 µM) in [4] (Staphylococcus aureus). In addition, the MBC in assay [5] was above 64 µg/mL; in [6], above 64 µg/mL; in assay [7], 2 µg/mL (≈ 5.44 µM); in assay [8], 1 µg/mL (≈ 2.72 µM).

`CCN1CCC(c2ccc(Nc3ccnc4cc5ccccc5cc34)cc2)CC1` [N-[4-(1-ethyl-4-piperidyl)phenyl]benzo[g]quinolin-4-amine]: the MIC in assay [2] (setting [10]) is 32 µg/mL (≈ 83.9 µM); in assay [3] (setting [11]), 64 µg/mL (≈ 168 µM); in [4] (Staphylococcus aureus), 32 µg/mL (≈ 83.9 µM). Further, the MBC in [5] amounted to 32 µg/mL (≈ 83.9 µM); in assay [6] it was 32 µg/mL (≈ 83.9 µM); in [7] it was 64 µg/mL (≈ 168 µM); in [8] it was 32 µg/mL (≈ 83.9 µM).

For the molecule `c1ccc2cc3c(Nc4ccc(N5CCCCC5)cc4)ccnc3cc2c1` [N-[4-(1-piperidinyl)phenyl]benzo[g]quinolin-4-amine], the minimum inhibitory concentration (MIC) in assay [1] (Escherichia coli) is above 64 µg/mL; in assay [2] (setting [10]) it was 2 µg/mL (≈ 5.66 µM); in assay [3] (setting [11]), 2 µg/mL (≈ 5.66 µM); in [4] (Staphylococcus aureus), 2 µg/mL (≈ 5.66 µM). The “antimicrobial activity against E. coli” value in assay [1] (in words, MIC and MBC, E. coli strain not named) is recorded as “less effective against E. coli”. The “antimicrobial activity against S. aureus” value in assay [3] (in words, MIC and MBC, compared with the other compounds) is on record as “most potent antimicrobial activity against s. aureus”. In addition, the MBC is above 64 µg/mL in [5], 2 µg/mL (≈ 5.66 µM) in assay [6], 4 µg/mL (≈ 11.3 µM) in assay [7] and 2 µg/mL (≈ 5.66 µM) in assay [8]. Moreover, the “selectivity for bacterial RNA polymerase relative to human RNA polymerase” value in assay [9] is “highest degree of selectivity for bacterial RNA polymerases”.

With `C#CCCN1CCN(c2ccc(Nc3ccnc4cc5ccccc5cc34)cc2)CC1` [N-{4-[4-(3-butynyl)-1-piperazinyl]phenyl}benzo[g]quinolin-4-amine], the minimal inhibitory concentration (MIC) in [1] (Escherichia coli) was above 64 µg/mL; in assay [2] (setting [10]), above 64 µg/mL; in assay [3] (setting [11]), 16 µg/mL (≈ 39.4 µM); in assay [4] (Staphylococcus aureus) it was 16 µg/mL (≈ 39.4 µM). Further, the MBC was above 64 µg/mL in assay [5], above 64 µg/mL in assay [6], 16 µg/mL (≈ 39.4 µM) in assay [7] and 16 µg/mL (≈ 39.4 µM) in [8].

Turning to `CCN(CC)CCNc1ccc(Nc2ccnc3cc4ccccc4cc23)cc1` [N^1-benzo[g]quinolin-4-yl-N^4-[2-(diethylamino)ethyl]-1,4-benzenediamine], the minimal inhibitory concentration (MIC) in assay [1] (Escherichia coli) amounted to 8 µg/mL (≈ 20.8 µM); in [2] (setting [10]), 4 µg/mL (≈ 10.4 µM); in assay [3] (setting [11]), 16 µg/mL (≈ 41.6 µM); in assay [4] (Staphylococcus aureus) it was 8 µg/mL (≈ 20.8 µM). Moreover, the MBC in assay [5] worked out at 16 µg/mL (≈ 41.6 µM); in assay [6], 16 µg/mL (≈ 41.6 µM); in [7] it was 16 µg/mL (≈ 41.6 µM); in assay [8] it was 8 µg/mL (≈ 20.8 µM).

As for `CC(C)Nc1ccc(Nc2ccnc3cc4ccccc4cc23)cc1` [N^1-benzo[g]quinolin-4-yl-N^4-isopropyl-1,4,benzenediamine], the MIC was above 64 µg/mL in assay [1] (Escherichia coli), above 64 µg/mL in assay [2] (setting [10]), 8 µg/mL (≈ 24.4 µM) in assay [3] (setting [11]) and 32 µg/mL (≈ 97.7 µM) in assay [4] (Staphylococcus aureus). The MBC in [5] was above 64 µg/mL; in assay [6], above 64 µg/mL; in assay [7], 8 µg/mL (≈ 24.4 µM); in assay [8], 32 µg/mL (≈ 97.7 µM).

With “N-{5-benzo[g]quinolin-4-yl-3-[(diethylamino)methyl]-2-methylbenzyl}-N-ethyl-1-ethanamine”, the MIC in assay [1] (E. coli (MCR106)) was found to be 64 µg/mL; in assay [2], 16 µg/mL; in assay [3], 64 µg/mL; in [4] (S. Aureus (Rif-res), rifampicin-resistant) it was 32 µg/mL. In addition, the MBG was above 64 µg/mL in assay [5]; 16 µg/mL in assay [6]; 64 µg/mL in assay [7] (S. Aureus, minimum bactericidal concentration); 64 µg/mL in [8] (S. Aureus (Rif-res), rifampicin-resistant, minimum bactericidal concentration).

The record behind these values is patent US6274596A, “Benzoquinoline derivatives useful as antibacterial agents” (priority 1999, dated 2001).
